Results as given in article PMC6054517, “Design and synthesis of novel oridonin analogues as potent anticancer agents” (Journal of Enzyme Inhibition and Medicinal Chemistry, 2018).

Tests used:
Format in all cases: cell-based, human
HCT116 = experiment: MTT antiproliferative assay, HCT116 cells; conditions: MTT, 48 h, means ± SD, n = 3
Source text: (§1) Human gastric cancer (AGS), human differentiation of advanced gastric cancer (MGC803), human colorectal cancer (HCT116), human lung cancer (A549), human hepatocellular carcinoma (Bel7402) and human cervical cancer (HeLa) cell lines were obtained from the State Key Laboratory of Natural Resources and Functional Molecules of the Changbai Mountain (Yanbian University) and maintained in Dulbecco’s modified Eagle’s medium and RPMI Media 1640 (RPMI1640), supplemented with 10% foetal bovine serum 100 IU/ml penicillin, […] and 2 mmol/l L-glutamine (Sigma) at 37 °7 in a humidified atmosphere containing 5% CO2.
(§2) All six human cancer cell lines and normal L02 cells were seeded in 96-well plates at the appropriate densities to ensure exponential growth throughout the experimental period (9 × 10^3 cells per well) and then allowed to adhere for 24 h. The cells were then treated for 48 h with four serial dilutions (100, 50, 10, and 1 µM) of each compound. 5-Fluorouracil (5-FU) was used as the positive control. After incubation for 48 h, 10 µl MTT solution was added to each well to give a final concentration of 2 mg ml^−1. The plates were then incubated for further 4 h. After incubation, the MTT solution was removed and 150 µl DMSO was added to each well to solubilise the formed product. To ensure complete solubilisation, the plates were shaken vigorously for 10 min at room temperature. The optometric density (OD) was read on a microplate reader (ELx800, BioTek, Highland Park, Winooski, VT) at a wavelength of 492 nm and the data were subsequently analysed. The percentage of cell growth inhibition was calculated from the following equation: inhibitory rate (%) = [1–(ODtreated–ODblank)/(ODcontrol–ODblank)] × 100.
(§3) The MTT assay was performed using a standard protocol.

Hela = experiment: MTT antiproliferative assay, HeLa cells; conditions: MTT, 48 h, means ± SD, n = 3
Source text: as §1, §2, §3

MGC803 = experiment: MTT antiproliferative assay, MGC803 cells; conditions: MTT, 48 h, means ± SD, n = 3
Source text: as §1, §2, §3

Bel7402 = experiment: MTT antiproliferative assay, Bel7402 cells; conditions: MTT, 48 h, means ± SD, n = 3
Source text: as §1, §2, §3

AGS = experiment: MTT antiproliferative assay, AGS cells; conditions: 48 h, MTT, means ± SD, n = 3
Source text: as §1, §2, §3

A549 = experiment: MTT antiproliferative assay, A549 cells; conditions: MTT, 48 h, means ± SD, n = 3
Source text: as §1, §2, §3

IC50 (HCT116; Homo sapiens, HCT-116, 48 h) [µM] | IC50 (Hela; Homo sapiens, HeLa) [µM] | IC50 (MGC803; Homo sapiens, MGC-803) [µM] | IC50 (Bel7402; Homo sapiens, Bel-7402) [µM] | IC50 (AGS; Homo sapiens, AGS) [µM] | IC50 (A549; Homo sapiens, A549) [µM] | IC50 (HCT116) [µM] | IC50 (Hela) [µM] | IC50 (MGC803) [µM] | IC50 (Bel7402) [µM] | IC50 (AGS) [µM] | IC50 (A549) [µM] | Molecule
14 ± 1.94 | > 100 | 7.27 ± 0.74 | 9.66 ± 1.15 | 15.3 ± 1.78 | 23.1 ± 3.63 |  |  |  |  |  |  | CC1(C)CC[C@H](O)C23CO[C@](O)([C@@H](O)[C@H]12)[C@]12C(=O)/C(=C/c4ccc(Cl)cc4)[C@H](CC[C@@H]31)[C@H]2O [Compound 2e, (1S,4aR,5S,6S,6aR,9S,11aS,14R,E)-8-(4-chlorobenzylidene)-1,5,6,14-tetrahydroxy-4,4-dimethyldecahydro-1H-6,11b-(epoxymethano)-6a,9-methanocyclohepta[a]-naphthalen-7(8H)-one]
36.6 ± 2.43 | > 100 | 23.6 ± 1.48 | > 100 | 13.9 ± 1.5 | 47.4 ± 3.49 |  |  |  |  |  |  | CC1(C)CCC(O)C23COC(O)(C(O)C12)C12C(=O)C(=Cc4cccc(F)c4)C(CCC31)C2O [Compound 2b, (1S,4aR,5S,6S,6aR,9S,11aS,14R,E)-8-(3-fluorobenzylidene)-1,5,6,14-tetrahydroxy-4,4-dimethyldecahydro-1H-6,11b-(epoxymethano)-6a,9-methanocyclohepta[a]n-aphthalen-7(8H)-one]
3.09 ± 0.41 | 8.21 ± 1.2 | 10.9 ± 1.39 | 6.54 ± 0.94 | 10 ± 1.88 | 15.3 ± 1.31 |  |  |  |  |  |  | CCCOc1ccc(/C=C2/C(=O)[C@]34[C@H](O)[C@H]2CC[C@H]3C23CO[C@]4(O)[C@@H](O)[C@@H]2C(C)(C)CC[C@@H]3O)cc1 [Compound 2o, (1S,4aR,5S,6S,6aR,9S,11aS,14R,E)-1,5,6,14-tetrahydroxy-4,4-dimethyl-8-(4-propoxybenzylidene)decahydro-1H-6,11b-(epoxymethano)-6a,9-methanocyclohepta-[a]naphthalen-7(8H)-one]
5.08 | 24.7 ± 2.08 | 10.4 ± 1.29 | 3.56 ± 0.52 | 2.87 ± 0.58 | 7.89 ± 0.99 | 5.48 ± 0.64 |  |  |  |  |  | COc1ccccc1/C=C1/C(=O)[C@]23[C@H](O)[C@H]1CC[C@H]2C12CO[C@]3(O)[C@@H](O)[C@@H]1C(C)(C)CC[C@@H]2O [Compound 2j, (1S,4aR,5S,6S,6aR,9S,11aS,14R,E)-1,5,6,14-tetrahydroxy-8-(2-methoxybenzylidene)-4,4-dimethyldecahydro-1H-6,11b-(epoxymethano)-6a,9-methanocyclohepta-[a]naphthalen-7(8H)-one]
14.2 ± 1.31 | 22.3 ± 1.92 | 17.7 ± 1.13 | 24.2 ± 2.27 | 10.8 ± 2.39 | 66.9 ± 5.29 |  |  |  |  |  |  | Cc1cccc(/C=C2/C(=O)[C@]34[C@H](O)[C@H]2CC[C@H]3C23CO[C@]4(O)[C@@H](O)[C@@H]2C(C)(C)CC[C@@H]3O)c1 [Compound 2g, (1S,4aR,5S,6S,6aR,9S,11aS,14R,E)-1,5,6,14-tetrahydroxy-4,4-dimethyl-8-(3-methylbenzylidene)decahydro-1H-6,11b-(epoxymethano)-6a,9-methanocyclohepta[a]naphthalen-7(8H)-one]
18.6 ± 1.78 | 8.89 ± 0.94 | 28 ± 1.73 | 14.6 ± 1.21 | 17.3 ± 2.41 | 15.8 ± 1.47 |  |  |  |  |  |  | COc1cc(/C=C2/C(=O)[C@]34[C@H](O)[C@H]2CC[C@H]3C23CO[C@]4(O)[C@@H](O)[C@@H]2C(C)(C)CC[C@@H]3O)cc(OC)c1OC [Compound 2n, (1S,4aR,5S,6S,6aR,9S,11aS,14R,E)-1,5,6,14-tetrahydroxy-4,4-dimethyl-8-(3,4,5-trimethoxybenzylidene)decahydro-1H-6,11b-(epoxymethano)-6a,9-methanocyclo-hepta[a]naphthalen-7(8H)-one]
47.1 ± 4.32 | > 100 | 9.13 ± 0.82 | 4.97 ± 0.56 | > 100 | > 100 |  |  |  |  |  |  | CC1(C)CCC(O)C23COC(O)(C(O)C12)C12C(=O)C(=Cc4ccccc4)C(CCC31)C2O [Compound 2a, (1S,4aR,5S,6S,6aR,9S,11aS,14R,E)-8-benzylidene-1,5,6,14-tetrahydroxy-4,4-dimethyldecahydro-1H-6,11b-(epoxymethano)-6a,9-methanocyclohepta[a]naphthale-n-7(8H)-one]
2.99 ± 0.32 | 68.8 ± 5.32 | 2.79 ± 0.38 | 4.52 ± 0.46 | 2.91 ± 0.42 | 16.8 ± 2.51 |  |  |  |  |  |  | COc1ccc(/C=C2/C(=O)[C@]34[C@H](O)[C@H]2CC[C@H]3C23CO[C@]4(O)[C@@H](O)[C@@H]2C(C)(C)CC[C@@H]3O)cc1 [Compound 2k, (1S,4aR,5S,6S,6aR,9S,11aS,14R,E)-1,5,6,14-tetrahydroxy-8-(4-methoxybenzylidene)-4,4-dimethyldecahydro-1H-6,11b-(epoxymethano)-6a,9-methanocyclohepta-[a]naphthalen-7(8H)-one]
 |  |  |  |  |  | 2.39 ± 0.19 | 9.85 ± 2.03 | 6.86 ± 1.24 | 8.45 ± 1.32 | 13.7 ± 2.63 | 4.16 ± 0.45 | (1S,4aR,5S,6S,6aR,9S,11aS,14R,E)-8-(4-(((Z)-3,6-dimethylhepta-2,5-dien1yl)oxy)benzylidene)-1,5,6,14-tetrahydroxy-4,4-dimethyldecahydro-1H-6,11b-(epoxymethano)-6a,9-methanocyclohepta[a]naphthalen-7(8H)-one [Compound 2r]
7.63 ± 0.81 | 5.43 ± 0.85 | 9.1 ± 1.72 | 8.62 ± 1.12 | 3.1 ± 0.41 | 4.66 ± 0.3 |  |  |  |  |  |  | CC(C)=CCOc1cccc(/C=C2/C(=O)[C@]34[C@H](O)[C@H]2CC[C@H]3C23CO[C@]4(O)[C@@H](O)[C@@H]2C(C)(C)CC[C@@H]3O)c1 [Compound 2q, (1S,4aR,5S,6S,6aR,9S,11aS,14R,E)-1,5,6,14-tetrahydroxy-4,4-dimethyl-8-(3-((3-methylbut-2-en1yl)oxy)benzylidene)decahydro-1H-6,11b-(epoxymethano)-6a,9-methanocyclohepta[a]naphthalen-7(8H)-one]
59 ± 3.37 | > 100 | 22.8 ± 1.25 | > 100 | > 100 | > 100 |  |  |  |  |  |  | Cc1ccccc1/C=C1/C(=O)[C@]23[C@H](O)[C@H]1CC[C@H]2C12CO[C@]3(O)[C@@H](O)[C@@H]1C(C)(C)CC[C@@H]2O [Compound 2f, (1S,4aR,5S,6S,6aR,9S,11aS,14R,E)-1,5,6,14-tetrahydroxy-4,4-dimethyl-8-(2-methylbenzylidene)decahydro-1H-6,11b-(epoxymethano)-6a,9-methanocyclohepta[a]-naphthalen-7(8H)-one]
17.5 ± 1.44 | 26 ± 1.48 | 21 ± 1.24 | 51.2 ± 5.43 | 55 ± 4.43 | 12.6 ± 1.39 |  |  |  |  |  |  | CC1(C)CCC(O)C23COC(O)(C(O)C12)C12C(=O)C(=Cc4ccc5ccccc5c4)C(CCC31)C2O [Compound 2y, (1S,4aR,5S,6S,6aR,9S,11aS,14R,E)-1,5,6,14-tetrahydroxy-4,4-dimethyl-8-(napht-halen-2-ylmethylene)decahydro-1H-6,11b-(epoxymethano)-6a,9-methanocyclohepta[a]naphthalen-7(8H)-one]
10.2 ± 1.12 | > 100 | > 100 | 12.6 ± 1.05 | 14.3 ± 2.43 | 59.6 ± 4.75 |  |  |  |  |  |  | CC1(C)CCC(O)C23COC(O)(C(O)C12)C12C(=O)C(=Cc4ccc(F)cc4)C(CCC31)C2O [Compound 2c, (1S,4aR,5S,6S,6aR,9S,11aS,14R,E)-8-(4-fluorobenzylidene)-1,5,6,14-tetrahydroxy-4,4-dimethyldecahydro-1H-6,11b-(epoxymethano)-6a,9-methanocyclohepta[a]n-aphthalen-7(8H)-one]
4.02 ± 0.33 | 9.79 ± 1.08 | 12.2 ± 0.94 | 7.35 ± 1.28 | 12 ± 1.99 | 21.5 ± 1.88 |  |  |  |  |  |  | CC1(C)CC[C@H](O)C23CO[C@](O)([C@@H](O)[C@H]12)[C@]12C(=O)/C(=C/c4ccc(NC(=O)c5ccccc5)cc4)[C@H](CC[C@@H]31)[C@H]2O [Compound 2u, N-(4-((E)-((1S,4aR,5S,6S,6aR,9S,11aS,14R)-1,5,6,14-tetrahydroxy-4,4-dimethyl-7-oxodecahydro-1H-6,11b-(epoxymethano)-6a,9-methanocyclohepta[a]naphthalen-8(7H)-ylidene)methyl)phenyl)benzamide]
10.1 ± 1.39 | 28.7 ± 2.13 | 27.2 ± 2.38 | 11.3 ± 0.98 | 5.26 ± 1.09 | 18 ± 1.49 |  |  |  |  |  |  | Cc1ccc(/C=C2/C(=O)[C@]34[C@H](O)[C@H]2CC[C@H]3C23CO[C@]4(O)[C@@H](O)[C@@H]2C(C)(C)CC[C@@H]3O)cc1 [Compound 2h, (1S,4aR,5S,6S,6aR,9S,11aS,14R,E)-1,5,6,14-tetrahydroxy-4,4-dimethyl-8-(4-methylbenzylidene)decahydro-1H-6,11b-(epoxymethano)-6a,9-methanocyclohepta[a]naphthalen-7(8H)-one]
